{"source": "the kinase profiling compilation of Christmann-Franck et al. (2016)", "test_in_all_cases": "KINOMEscan competition binding", "settings_in_all_cases": "compound 10.0 µM", "key": {"MAPK8 (human)": {"target": "MAPK8 (human) (UniProt P45983)"}, "[1]": {"tested_on": "EIF2AK4 KD2 (human), Q9P2K8 [S808G]"}, "MAP4K4 (human)": {"target": "MAP4K4 (human) (UniProt O95819)"}, "PIK3C2G (human)": {"target": "PIK3C2G (human) (UniProt O75747)"}, "DAPK2 (human)": {"target": "DAPK2 (human) (UniProt Q9UIK4)", "sequence (Q9UIK4 whole entry, looked up)": "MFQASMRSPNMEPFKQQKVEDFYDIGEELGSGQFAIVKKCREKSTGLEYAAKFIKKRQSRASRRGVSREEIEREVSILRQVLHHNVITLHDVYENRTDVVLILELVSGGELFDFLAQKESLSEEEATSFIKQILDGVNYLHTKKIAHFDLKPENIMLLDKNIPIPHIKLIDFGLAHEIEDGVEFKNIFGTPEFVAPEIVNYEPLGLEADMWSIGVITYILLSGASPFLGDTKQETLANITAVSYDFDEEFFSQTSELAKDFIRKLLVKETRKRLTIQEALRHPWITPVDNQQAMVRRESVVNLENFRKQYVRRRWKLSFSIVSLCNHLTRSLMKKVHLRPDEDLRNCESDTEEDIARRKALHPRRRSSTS"}, "TEC (human)": {"target": "TEC (human) (UniProt P42680)", "sequence (P42680 whole entry, looked up)": "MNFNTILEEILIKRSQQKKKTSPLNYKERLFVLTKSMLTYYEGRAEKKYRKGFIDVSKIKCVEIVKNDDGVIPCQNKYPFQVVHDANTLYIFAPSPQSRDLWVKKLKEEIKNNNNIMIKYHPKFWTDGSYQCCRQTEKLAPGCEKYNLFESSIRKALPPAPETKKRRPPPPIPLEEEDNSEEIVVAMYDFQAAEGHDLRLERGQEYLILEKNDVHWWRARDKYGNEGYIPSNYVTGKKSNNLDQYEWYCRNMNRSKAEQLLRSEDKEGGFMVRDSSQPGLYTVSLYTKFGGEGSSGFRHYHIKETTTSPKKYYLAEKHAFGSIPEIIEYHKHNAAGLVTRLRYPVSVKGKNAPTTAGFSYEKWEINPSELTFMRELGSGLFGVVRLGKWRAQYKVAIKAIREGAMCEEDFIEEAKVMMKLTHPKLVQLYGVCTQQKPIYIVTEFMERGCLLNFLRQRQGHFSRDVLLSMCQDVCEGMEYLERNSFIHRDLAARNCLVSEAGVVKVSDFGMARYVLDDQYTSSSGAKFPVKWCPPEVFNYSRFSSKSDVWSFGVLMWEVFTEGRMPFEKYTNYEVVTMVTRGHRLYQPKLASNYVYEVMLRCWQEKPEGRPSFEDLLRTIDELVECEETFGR"}, "IRAK1 (human)": {"target": "IRAK1 (human) (UniProt P51617)"}, "MINK1 (human)": {"target": "MINK1 (human) (UniProt Q8N4C8)"}, "ACVRL1 (human)": {"target": "ACVRL1 (human) (UniProt P37023)"}, "STK33 (human)": {"target": "STK33 (human) (UniProt Q9BYT3)"}, "SIK1 (human)": {"target": "SIK1 (human) (UniProt P57059)", "sequence (P57059 whole entry, looked up)": "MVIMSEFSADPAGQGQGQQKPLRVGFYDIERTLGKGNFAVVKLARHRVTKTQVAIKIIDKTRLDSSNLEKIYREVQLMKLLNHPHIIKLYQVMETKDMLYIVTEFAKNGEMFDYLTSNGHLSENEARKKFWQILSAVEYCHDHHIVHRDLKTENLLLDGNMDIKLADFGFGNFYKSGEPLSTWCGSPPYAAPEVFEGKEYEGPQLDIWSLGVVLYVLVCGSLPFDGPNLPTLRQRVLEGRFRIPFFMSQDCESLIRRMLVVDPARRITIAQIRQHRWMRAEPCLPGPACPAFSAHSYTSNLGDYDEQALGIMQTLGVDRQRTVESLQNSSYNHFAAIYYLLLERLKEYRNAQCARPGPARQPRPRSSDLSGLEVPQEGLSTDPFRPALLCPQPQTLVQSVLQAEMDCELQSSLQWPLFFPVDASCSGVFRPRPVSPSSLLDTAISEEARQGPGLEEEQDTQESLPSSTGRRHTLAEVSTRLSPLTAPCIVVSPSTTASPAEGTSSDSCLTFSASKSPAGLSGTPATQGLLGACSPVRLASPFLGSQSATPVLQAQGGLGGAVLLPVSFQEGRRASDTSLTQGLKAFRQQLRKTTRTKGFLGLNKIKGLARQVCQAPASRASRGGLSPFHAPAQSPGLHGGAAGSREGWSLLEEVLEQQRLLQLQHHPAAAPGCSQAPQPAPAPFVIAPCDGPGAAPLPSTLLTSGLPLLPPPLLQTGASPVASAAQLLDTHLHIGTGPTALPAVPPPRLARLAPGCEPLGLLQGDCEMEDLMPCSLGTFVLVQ"}, "CIT (human)": {"target": "CIT (human) (UniProt O14578)"}, "SRPK1 (human)": {"target": "SRPK1 (human) (UniProt Q96SB4)"}, "MLTK (human)": {"target": "MLTK (human) (UniProt Q9NYL2)"}, "CHEK1 (human)": {"target": "CHEK1 (human) (UniProt O14757)"}, "BLK (human)": {"target": "BLK (human) (UniProt P51451)"}, "NUAK1 (human)": {"target": "NUAK1 (human) (UniProt O60285)"}, "CLK2 (human)": {"target": "CLK2 (human) (UniProt P49760)"}, "MAP2K3 (human)": {"target": "MAP2K3 (human) (UniProt P46734)"}, "PLK1 (human)": {"target": "PLK1 (human) (UniProt P53350)", "sequence (P53350 whole entry, looked up)": "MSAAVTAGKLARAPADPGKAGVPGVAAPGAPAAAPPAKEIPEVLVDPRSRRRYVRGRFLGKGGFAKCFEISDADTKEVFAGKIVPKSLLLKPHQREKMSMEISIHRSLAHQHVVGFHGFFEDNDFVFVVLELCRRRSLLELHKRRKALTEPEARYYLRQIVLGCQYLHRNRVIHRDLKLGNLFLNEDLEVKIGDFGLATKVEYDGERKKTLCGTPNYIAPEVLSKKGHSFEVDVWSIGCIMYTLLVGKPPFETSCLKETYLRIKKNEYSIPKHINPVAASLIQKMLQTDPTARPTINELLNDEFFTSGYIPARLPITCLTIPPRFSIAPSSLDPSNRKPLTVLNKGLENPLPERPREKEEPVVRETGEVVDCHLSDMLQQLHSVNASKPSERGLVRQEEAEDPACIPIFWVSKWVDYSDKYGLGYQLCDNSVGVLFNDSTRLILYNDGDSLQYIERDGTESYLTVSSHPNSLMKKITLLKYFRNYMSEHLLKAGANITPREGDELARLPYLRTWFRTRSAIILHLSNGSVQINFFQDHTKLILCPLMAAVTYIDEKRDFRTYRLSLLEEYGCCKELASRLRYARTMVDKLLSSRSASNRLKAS"}, "MAP2K1 (human)": {"target": "MAP2K1 (human) (UniProt Q02750)"}, "MAP4K2 (human)": {"target": "MAP4K2 (human) (UniProt Q12851)"}, "[2]": {"tested_on": "FLT3 (human), P36888 [ITD]"}, "SGK110 (human)": {"target": "SGK110 (human) (UniProt P0C264)", "sequence (P0C264 whole entry, looked up)": "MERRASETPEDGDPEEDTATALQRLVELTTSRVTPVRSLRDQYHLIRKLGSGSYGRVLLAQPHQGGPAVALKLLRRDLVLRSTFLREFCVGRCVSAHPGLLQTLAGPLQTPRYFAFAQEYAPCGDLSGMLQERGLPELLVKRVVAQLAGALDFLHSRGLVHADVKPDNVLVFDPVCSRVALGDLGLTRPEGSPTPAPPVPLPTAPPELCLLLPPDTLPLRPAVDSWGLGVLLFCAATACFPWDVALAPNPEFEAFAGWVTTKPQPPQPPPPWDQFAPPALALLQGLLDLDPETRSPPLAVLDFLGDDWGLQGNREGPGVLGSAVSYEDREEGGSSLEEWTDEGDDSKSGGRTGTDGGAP"}, "MAPK15 (human)": {"target": "MAPK15 (human) (UniProt Q8TD08)"}, "CLK1 (human)": {"target": "CLK1 (human) (UniProt P49759)"}, "MYLK2 (human)": {"target": "MYLK2 (human) (UniProt Q9H1R3)"}, "DYRK1A (human)": {"target": "DYRK1A (human) (UniProt Q13627)"}, "EPHA7 (human)": {"target": "EPHA7 (human) (UniProt Q15375)"}, "EPHB3 (human)": {"target": "EPHB3 (human) (UniProt P54753)", "sequence (P54753 whole entry, looked up)": "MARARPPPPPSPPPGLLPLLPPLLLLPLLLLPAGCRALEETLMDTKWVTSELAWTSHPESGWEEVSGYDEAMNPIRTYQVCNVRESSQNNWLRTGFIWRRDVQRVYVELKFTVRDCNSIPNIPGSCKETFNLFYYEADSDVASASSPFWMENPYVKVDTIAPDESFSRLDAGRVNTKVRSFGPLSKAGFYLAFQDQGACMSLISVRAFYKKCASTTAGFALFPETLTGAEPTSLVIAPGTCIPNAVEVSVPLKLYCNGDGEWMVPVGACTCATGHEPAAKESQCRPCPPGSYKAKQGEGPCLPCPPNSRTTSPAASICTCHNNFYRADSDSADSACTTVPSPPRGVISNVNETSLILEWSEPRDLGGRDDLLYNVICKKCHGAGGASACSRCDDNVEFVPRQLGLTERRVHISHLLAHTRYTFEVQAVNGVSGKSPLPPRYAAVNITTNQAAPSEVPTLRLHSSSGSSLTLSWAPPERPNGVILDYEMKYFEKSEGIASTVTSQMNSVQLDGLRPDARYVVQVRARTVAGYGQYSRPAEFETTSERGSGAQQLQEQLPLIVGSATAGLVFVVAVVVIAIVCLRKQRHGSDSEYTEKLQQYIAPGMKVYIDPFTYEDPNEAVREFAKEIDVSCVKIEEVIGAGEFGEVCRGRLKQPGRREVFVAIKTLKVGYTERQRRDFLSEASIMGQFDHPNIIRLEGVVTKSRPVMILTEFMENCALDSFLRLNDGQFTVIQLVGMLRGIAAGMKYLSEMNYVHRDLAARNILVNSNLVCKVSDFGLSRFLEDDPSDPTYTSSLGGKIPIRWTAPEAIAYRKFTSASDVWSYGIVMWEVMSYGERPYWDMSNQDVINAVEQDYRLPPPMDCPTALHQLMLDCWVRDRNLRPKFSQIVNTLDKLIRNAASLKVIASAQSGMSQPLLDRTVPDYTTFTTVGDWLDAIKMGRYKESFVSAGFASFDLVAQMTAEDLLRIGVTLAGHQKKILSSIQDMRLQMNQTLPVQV"}, "TGFBR2 (human)": {"target": "TGFBR2 (human) (UniProt P37173)"}, "[3]": {"tested_on": "KIT (human), P10721 [V559D/V654A]"}, "MAPK13 (human)": {"target": "MAPK13 (human) (UniProt O15264)"}, "RIOK3 (human)": {"target": "RIOK3 (human) (UniProt O14730)"}, "LIMK2 (human)": {"target": "LIMK2 (human) (UniProt P53671)"}, "PIK3CD (human)": {"target": "PIK3CD (human) (UniProt O00329)"}, "[4]": {"tested_on": "PIK3CA (human), P42336 [H1047L]"}, "[5]": {"tested_on": "ABL1 (human), P00519 [E255K]", "sequence (P00519 whole entry E255K, looked up)": "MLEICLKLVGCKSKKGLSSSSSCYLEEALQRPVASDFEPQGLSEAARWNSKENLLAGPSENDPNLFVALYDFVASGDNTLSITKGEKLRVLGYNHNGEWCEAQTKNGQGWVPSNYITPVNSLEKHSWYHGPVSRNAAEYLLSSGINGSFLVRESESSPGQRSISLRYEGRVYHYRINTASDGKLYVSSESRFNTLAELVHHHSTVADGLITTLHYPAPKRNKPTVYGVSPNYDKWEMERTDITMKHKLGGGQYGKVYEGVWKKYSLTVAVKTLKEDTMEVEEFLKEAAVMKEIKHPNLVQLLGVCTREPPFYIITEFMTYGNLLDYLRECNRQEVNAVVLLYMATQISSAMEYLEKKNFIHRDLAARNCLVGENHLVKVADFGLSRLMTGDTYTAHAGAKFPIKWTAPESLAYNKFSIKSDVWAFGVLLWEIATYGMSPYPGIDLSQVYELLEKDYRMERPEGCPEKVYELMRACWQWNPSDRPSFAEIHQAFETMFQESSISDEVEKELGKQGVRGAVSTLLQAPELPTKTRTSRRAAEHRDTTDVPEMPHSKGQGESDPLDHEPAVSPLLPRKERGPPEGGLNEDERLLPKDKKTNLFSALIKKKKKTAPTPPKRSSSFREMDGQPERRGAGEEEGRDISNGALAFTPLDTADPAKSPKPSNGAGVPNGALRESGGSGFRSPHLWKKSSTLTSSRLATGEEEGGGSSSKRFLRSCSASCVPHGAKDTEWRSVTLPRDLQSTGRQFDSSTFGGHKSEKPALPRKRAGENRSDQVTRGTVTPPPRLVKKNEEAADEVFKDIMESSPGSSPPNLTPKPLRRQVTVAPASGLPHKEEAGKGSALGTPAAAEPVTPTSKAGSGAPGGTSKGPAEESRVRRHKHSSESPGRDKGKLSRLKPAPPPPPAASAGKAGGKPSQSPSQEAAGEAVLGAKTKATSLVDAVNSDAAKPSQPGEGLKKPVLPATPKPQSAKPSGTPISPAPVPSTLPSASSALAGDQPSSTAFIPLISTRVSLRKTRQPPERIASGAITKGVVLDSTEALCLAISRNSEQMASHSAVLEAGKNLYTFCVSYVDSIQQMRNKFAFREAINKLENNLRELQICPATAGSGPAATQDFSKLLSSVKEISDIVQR"}, "FLT3 (human)": {"target": "FLT3 (human) (UniProt P36888)"}, "STK10 (human)": {"target": "STK10 (human) (UniProt O94804)"}, "CDK18 (human)": {"target": "CDK18 (human) (UniProt Q07002)"}}}
{"smiles": "Cn1cc(C2=C(c3ccc(Cl)cc3Cl)C(=O)NC2=O)c2ccccc21", "values": [{"measurement": "kinase still bound, per cent of control", "setting": "MAPK8 (human)", "result": 77, "unit": "%"}, {"measurement": "kinase still bound, per cent of control", "setting": "[1]", "result": 100, "unit": "%"}, {"measurement": "kinase still bound, per cent of control", "setting": "MAP4K4 (human)", "result": 76, "unit": "%"}, {"measurement": "kinase still bound, per cent of control", "setting": "PIK3C2G (human)", "result": 94, "unit": "%"}, {"measurement": "kinase still bound, per cent of control", "setting": "DAPK2 (human)", "result": 67, "unit": "%"}, {"measurement": "kinase still bound, per cent of control", "setting": "TEC (human)", "result": 84, "unit": "%"}, {"measurement": "kinase still bound, per cent of control", "setting": "IRAK1 (human)", "result": 100, "unit": "%"}, {"measurement": "kinase still bound, per cent of control", "setting": "MINK1 (human)", "result": 60, "unit": "%"}, {"measurement": "kinase still bound, per cent of control", "setting": "ACVRL1 (human)", "result": 100, "unit": "%"}, {"measurement": "kinase still bound, per cent of control", "setting": "STK33 (human)", "result": 100, "unit": "%"}, {"measurement": "kinase still bound, per cent of control", "setting": "SIK1 (human)", "result": 90, "unit": "%"}, {"measurement": "kinase still bound, per cent of control", "setting": "CIT (human)", "result": 85, "unit": "%"}, {"measurement": "kinase still bound, per cent of control", "setting": "SRPK1 (human)", "result": 89, "unit": "%"}, {"measurement": "kinase still bound, per cent of control", "setting": "MLTK (human)", "result": 93, "unit": "%"}, {"measurement": "kinase still bound, per cent of control", "setting": "CHEK1 (human)", "result": 94, "unit": "%"}, {"measurement": "kinase still bound, per cent of control", "setting": "BLK (human)", "result": 100, "unit": "%"}, {"measurement": "kinase still bound, per cent of control", "setting": "NUAK1 (human)", "result": 90, "unit": "%"}, {"measurement": "kinase still bound, per cent of control", "setting": "CLK2 (human)", "result": 0.45, "unit": "%"}, {"measurement": "kinase still bound, per cent of control", "setting": "MAP2K3 (human)", "result": 86, "unit": "%"}, {"measurement": "kinase still bound, per cent of control", "setting": "PLK1 (human)", "result": 85, "unit": "%"}, {"measurement": "kinase still bound, per cent of control", "setting": "MAP2K1 (human)", "result": 100, "unit": "%"}, {"measurement": "kinase still bound, per cent of control", "setting": "MAP4K2 (human)", "result": 100, "unit": "%"}, {"measurement": "kinase still bound, per cent of control", "setting": "[2]", "result": 62, "unit": "%"}, {"measurement": "kinase still bound, per cent of control", "setting": "SGK110 (human)", "result": 100, "unit": "%"}, {"measurement": "kinase still bound, per cent of control", "setting": "MAPK15 (human)", "result": 1.7, "unit": "%"}, {"measurement": "kinase still bound, per cent of control", "setting": "CLK1 (human)", "result": 1.6, "unit": "%"}, {"measurement": "kinase still bound, per cent of control", "setting": "MYLK2 (human)", "result": 100, "unit": "%"}, {"measurement": "kinase still bound, per cent of control", "setting": "DYRK1A (human)", "result": 2.3, "unit": "%"}, {"measurement": "kinase still bound, per cent of control", "setting": "EPHA7 (human)", "result": 95, "unit": "%"}, {"measurement": "kinase still bound, per cent of control", "setting": "EPHB3 (human)", "result": 100, "unit": "%"}, {"measurement": "kinase still bound, per cent of control", "setting": "TGFBR2 (human)", "result": 100, "unit": "%"}, {"measurement": "kinase still bound, per cent of control", "setting": "[3]", "result": 83, "unit": "%"}, {"measurement": "kinase still bound, per cent of control", "setting": "MAPK13 (human)", "result": 100, "unit": "%"}, {"measurement": "kinase still bound, per cent of control", "setting": "RIOK3 (human)", "result": 65, "unit": "%"}, {"measurement": "kinase still bound, per cent of control", "setting": "LIMK2 (human)", "result": 96, "unit": "%"}, {"measurement": "kinase still bound, per cent of control", "setting": "PIK3CD (human)", "result": 100, "unit": "%"}, {"measurement": "kinase still bound, per cent of control", "setting": "[4]", "result": 100, "unit": "%"}, {"measurement": "kinase still bound, per cent of control", "setting": "[5]", "result": 100, "unit": "%"}, {"measurement": "kinase still bound, per cent of control", "setting": "FLT3 (human)", "result": 93, "unit": "%"}, {"measurement": "kinase still bound, per cent of control", "setting": "STK10 (human)", "result": 97, "unit": "%"}, {"measurement": "kinase still bound, per cent of control", "setting": "CDK18 (human)", "result": 7.4, "unit": "%"}]}
